Assay results as given in PMC6315694, “Synthesis of Pseudellone Analogs and Characterization as Novel T-type Calcium Channel Blockers” (Marine Drugs, 2018).

Experiments:
human CaV3.1 = biological target: T1, human CaV3.1 (Homo sapiens, UniProt O43497); test: T-type calcium channel window current FLIPR assay, CaV3.1; type: cell-based
T1 construct: expressed in transfected cells; host or cells: HEK 293T, transient transfection (FuGENE HD)
Procedure: (§1) The human embryonic kidney 293 (HEK 293) cell lines (from Emmanuel Bourinet, Montpellier, France) stably expressing CaV3.2 or CaV3.3 were cultured under 5% carbon dioxide at 37 °C in Dulbecco’s Modified Eagle Medium (DMEM) Glutamax (Gibco, Life Technologies, Carlsbad, CA, USA) supplemented with 10% (v/v) fetal bovine serum (FBS), 100 U/mL penicillin, 100 μg/mL streptomycin (Gibco, Life Technologies), and 750 μg/mL geneticin (G418) (Gibco, Life Technologies). The Chinese Hamster Ovary (CHO) cell lines (Emmanuel Bourinet, Montpellier, France) expressing CaV3.1 were cultured under 5% carbon dioxide at 37 °C in Alpha Minimum Essential Media (MEM) Glutamax (Gibco, Life Technologies), supplemented with 10% (v/v) fetal bovine serum (FBS) and 300 μg/mL geneticin (G418) (Gibco, Life Technologies). The human neuroblastoma SH-SY5 Y cells (Victor Diaz, Goettingen, Germany) were cultured under 5% carbon dioxide at 37 °C in RPMI 1640 antibiotic-free medium (Invitrogen, Carlsbad, CA, USA), supplemented with 15% FBS and 2 mM GlutaMAX™ (Invitrogen). D-PBS (Gibco, Life Technologies) was used to wash the cells, and 0.25% Trypsin-EDTA (Gibco, Life Technologies) was used to detach cells from the flask surface. They were split in a ratio of 1:5 (ideally 1000 cells/cm^2) when they reached 70%–80% confluence (every 2–3 days). Transiently transfected CaV3.1HEK293 T cells were used in FLIPR Assays. HEK 293 T cells were cultured under 5% carbon dioxide at 37 °C in DMEM supplemented with 10% (v/v) FBS. D-PBS was used to wash the cells, and 0.25% Trypsin-EDTA was used to detach cells from the flask surface. The cells were split and seeded at 6 million cells per T175 flask, to reach 70%–80% confluence after 24 h. The next day, 12 μg DNA of human CaV3.1 was incubated in 900 μL serum-free DMEM with 36 μL FuGENE HD transfection reagent (Promega Corporation, Madison, WI, US) (1:3 DNA/Fugene ratio) for 20 min, and then the mixture was added into the cell flask slowly, drop by drop. After the transfection, the cells were cultured under 5% carbon dioxide at 37 °C for 24 h and then moved to a 28 °C incubator.
HEK 293 cells stably expressing CaV3.2 or CaV3.3 were seeded into 384-well black wall clear bottom plates (Corning, Lowell, MA, USA) at a density of 30,000 cells per well. Transiently transfected CaV3.1HEK293 T cells were seeded into 384-well black wall clear bottom plates at a density of 60,000 cells per well. Once the cells reached 90%–95% confluence after 24 h, the media were removed from the wells and replaced with 20 μL of 10% calcium 4 dye (Molecular Devices, Sunnyvale, CA, USA) in HBSS-HEPES (containing 5 mM KCl, 10 mM HEPES, 140 mM NaCl, 10 mM glucose, and 0.5 mM CaCl2, pH 7.4) with 0.1% bovine serum albumin (BSA). The cells were incubated for 30 min at 37 °C in the presence of 5% carbon dioxide. Each well on the reagent plates for the first addition contained 15 μL different concentrations of compounds dissolved in HBSS-HEPES containing 0.1% BSA and <0.1% DMSO and was incubated for 20 min after loading. Positive and negative controls contained 15 μL of HBSS-HEPES (0.1% BSA) alone. The plates were placed in the FLIPR^TETRA (Molecular Devices, Sunnyvale, CA, USA) programmed to measure maximum fluorescence intensity following a second addition of the agonist 5 mM CaCl2. The data acquisition parameters were adjusted as follows: Baseline fluorescence of 1500–2000 arbitrary fluorescence units (AFU), emission wavelength of 515–575 nm, and excitation wavelength of 470–495 nm. HBSS-HEPES (0.1% BSA) was used in the second addition as a negative control. One fluorescence reading was taken before the second addition. Then the fluorescence readings were recorded every two seconds for 300 s. Raw fluorescence readings in the form of relative light units were converted to response over baseline using ScreenWorks® (Molecular Devices, version 3.2.0.14) software.
Data were plotted and analyzed using GraphPad Prism v7.0 (GraphPad Software Inc., San Diego, CA, USA).

N-type CaV2.2 = biological target: T2, N-type CaV2.2 (Homo sapiens, UniProt Q00975); test: HVA calcium channel FLIPR assay, N-type (SH-SY5Y cells); type: cell-based; conditions: SH-SY5Y, 10 µM nifedipine present, N = 3, mean ± SEM, read-out: IC50 CaV2.2 (HVA CaVs)
T2 construct: endogenous in cells
Procedure: as §1
SH-SY5Y cells were seeded into 384-well black wall clear bottom plates at a density of 15,000 cells per well, resulting in 90%–95% confluence after 24 h. The media were then removed from the wells and replaced with 20 μL of 10% calcium 4 dye (Molecular Devices) in physiological salt solution (PSS) (containing 5.9 mM KCl, 1.4 mM MgCl2, 10 mM HEPES, 1.2 mM NaH2 PO4, 5 mM NaHCO3, 140 mM NaCl, 11.5 mM glucose, and 1.8 mM CaCl2, pH 7.4) with 0.1% BSA. […] Positive control on the first reagent plate contained 15 μL of PSS (0.1% BSA), whereas PSS (0.1% BSA) containing 1 µM CVID and 10 µM nifedipine (final concentration) was used as a negative control. The fluorescence readings were recorded and converted as described previously, and agonist containing 90 mM KCl + 5 mM CaCl2 was used in the second addition.
Data were plotted and analyzed using GraphPad Prism v7.0 (GraphPad Software Inc., San Diego, CA, USA). A four-parameter logistic Hill equation with variable Hill coefficients was fitted to the data for concentration-response curves. Data are means ± SEM of n independent experiments. Statistical analysis was performed with a paired Student’s t-test with statistical significance at p < 0.05.

T1 sequence (O43497 whole entry): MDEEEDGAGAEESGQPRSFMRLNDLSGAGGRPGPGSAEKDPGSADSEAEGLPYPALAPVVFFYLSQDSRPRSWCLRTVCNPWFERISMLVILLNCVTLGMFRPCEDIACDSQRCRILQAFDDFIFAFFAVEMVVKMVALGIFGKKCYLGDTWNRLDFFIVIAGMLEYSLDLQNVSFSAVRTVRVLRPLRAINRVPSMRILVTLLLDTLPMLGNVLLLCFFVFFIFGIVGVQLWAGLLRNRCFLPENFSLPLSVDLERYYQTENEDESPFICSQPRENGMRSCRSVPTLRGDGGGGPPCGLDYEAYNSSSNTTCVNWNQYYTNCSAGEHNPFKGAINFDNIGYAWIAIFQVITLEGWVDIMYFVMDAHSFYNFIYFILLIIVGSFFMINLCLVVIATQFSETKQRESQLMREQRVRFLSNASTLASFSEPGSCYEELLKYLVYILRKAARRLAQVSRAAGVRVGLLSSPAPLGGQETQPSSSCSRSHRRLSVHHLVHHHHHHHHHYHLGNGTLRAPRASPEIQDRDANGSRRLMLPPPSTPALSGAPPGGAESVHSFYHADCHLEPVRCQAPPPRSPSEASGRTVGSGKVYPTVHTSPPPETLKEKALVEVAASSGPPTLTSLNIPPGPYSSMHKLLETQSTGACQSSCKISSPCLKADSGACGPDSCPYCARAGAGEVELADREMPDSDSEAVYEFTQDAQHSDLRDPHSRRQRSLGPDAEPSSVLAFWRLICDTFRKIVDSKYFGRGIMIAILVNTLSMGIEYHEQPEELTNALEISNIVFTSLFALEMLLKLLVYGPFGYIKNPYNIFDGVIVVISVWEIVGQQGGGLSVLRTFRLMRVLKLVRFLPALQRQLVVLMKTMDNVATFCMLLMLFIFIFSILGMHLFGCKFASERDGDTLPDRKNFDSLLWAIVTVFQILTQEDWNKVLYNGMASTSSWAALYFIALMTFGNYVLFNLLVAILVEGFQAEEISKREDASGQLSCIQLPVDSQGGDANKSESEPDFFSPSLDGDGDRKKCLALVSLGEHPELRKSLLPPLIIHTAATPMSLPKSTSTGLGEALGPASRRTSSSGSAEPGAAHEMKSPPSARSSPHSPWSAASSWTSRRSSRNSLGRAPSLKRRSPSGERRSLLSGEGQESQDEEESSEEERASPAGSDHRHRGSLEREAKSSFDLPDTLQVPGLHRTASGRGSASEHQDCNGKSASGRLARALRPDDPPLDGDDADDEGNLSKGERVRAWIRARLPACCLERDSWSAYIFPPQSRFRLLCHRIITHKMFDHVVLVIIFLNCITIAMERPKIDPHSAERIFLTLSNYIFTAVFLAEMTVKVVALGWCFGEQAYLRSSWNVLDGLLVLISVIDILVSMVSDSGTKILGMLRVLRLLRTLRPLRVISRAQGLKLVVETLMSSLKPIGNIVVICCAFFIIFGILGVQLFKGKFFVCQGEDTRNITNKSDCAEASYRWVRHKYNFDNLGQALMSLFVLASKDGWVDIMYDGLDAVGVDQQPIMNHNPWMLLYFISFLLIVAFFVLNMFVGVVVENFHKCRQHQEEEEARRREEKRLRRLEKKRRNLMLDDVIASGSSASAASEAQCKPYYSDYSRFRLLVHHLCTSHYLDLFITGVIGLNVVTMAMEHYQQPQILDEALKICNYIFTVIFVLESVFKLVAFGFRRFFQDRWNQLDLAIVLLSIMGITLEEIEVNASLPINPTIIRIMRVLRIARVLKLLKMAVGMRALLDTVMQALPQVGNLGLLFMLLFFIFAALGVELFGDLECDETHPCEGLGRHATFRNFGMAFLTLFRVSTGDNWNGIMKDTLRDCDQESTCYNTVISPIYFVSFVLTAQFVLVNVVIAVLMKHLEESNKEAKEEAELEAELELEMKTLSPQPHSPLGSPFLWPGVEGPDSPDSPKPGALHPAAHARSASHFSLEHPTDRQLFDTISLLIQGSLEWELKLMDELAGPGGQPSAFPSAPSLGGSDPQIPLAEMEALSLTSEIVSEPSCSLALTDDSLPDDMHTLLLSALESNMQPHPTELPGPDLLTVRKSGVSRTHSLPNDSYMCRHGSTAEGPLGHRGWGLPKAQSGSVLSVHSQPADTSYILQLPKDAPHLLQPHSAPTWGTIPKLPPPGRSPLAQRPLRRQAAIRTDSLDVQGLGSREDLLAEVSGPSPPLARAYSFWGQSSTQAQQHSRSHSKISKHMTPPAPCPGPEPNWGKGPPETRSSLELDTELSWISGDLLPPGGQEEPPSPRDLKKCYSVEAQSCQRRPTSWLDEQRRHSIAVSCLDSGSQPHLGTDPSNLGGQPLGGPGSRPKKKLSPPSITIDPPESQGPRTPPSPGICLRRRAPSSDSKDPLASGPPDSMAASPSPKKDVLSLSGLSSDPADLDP

IC50 (human CaV3.1; FLIPR window current assay, transiently transfected HEK293T, N = 3, mean ± SEM, read-out: IC50 CaV3.1 (LVA CaVs)): 58.6 ± 2.62 µM
Emax (human CaV3.1; FLIPR, n = 3, read-out: Emax, inhibition for CaV3.1): 75.5%
IC50 (N-type CaV2.2): 31.3 ± 3.4 µM
Compound: COC(=O)[C@H](Cc1c[nH]c2ccccc12)NC(=O)C(C)(c1c[nH]c2ccccc12)c1c[nH]c2ccccc12 [Compound 3, Methyl (2,2-di(1H-indol-3-yl)propanoyl)-L-tryptophanate]
